Assay results: patent US10494368B2, “Pesticidally active tetracyclic derivatives with sulfur containing substituents” (Syngenta Participations AG, priority 2015, dated 2019)

What was measured:
Format in all cases: in vivo
[1] = system: Plutella xylostella (Diamond Back Moth); assay: Plutella xylostella on artificial diet; conditions: 120 h, application rate 200 ppm, L2 larvae on artificial diet, 5 days after infestation, read-out: effect in at least one of the two categories (mortality or growth inhibition)
Experimental: (§1) 24-well microtiter plates with artificial diet were treated with aqueous test solutions prepared from 10′000 ppm DMSO stock solutions by pipetting. After drying, the plates were infested with L2 larvae (10 to 15 per well). The samples were assessed for mortality and growth inhibition in comparison to untreated samples 5 days after infestation.
(§2) The following compounds gave an effect of at least 80% in at least one of the two categories (mortality or growth inhibition) at an application rate of 200 ppm: […]

[2] = system: Spodoptera littoralis (Egyptian Cotton Leaf Worm); assay: Spodoptera littoralis on cotton leaf discs, spray; conditions: foliar, 72 h, application rate 200 ppm, L1 larvae on cotton leaf discs, 3 days after infestation
Experimental: Cotton leaf discs were placed onto agar in 24-well microtiter plates and sprayed with aqueous test solutions prepared from 10′000 ppm DMSO stock solutions. After drying the leaf discs were infested with five L1 larvae. The samples were assessed for mortality, anti-feeding effect, and growth inhibition in comparison to untreated samples 3 days after infestation. Control of Spodoptera littoralis by a test sample is given when at least one of the categories mortality, anti-feedant effect, and growth inhibition is higher than the untreated sample.

[3] = system: Spodoptera littoralis (Egyptian Cotton Leaf Worm); assay: Spodoptera littoralis, uptake by lettuce roots from agar; conditions: 144 h, test rate 12.5 ppm, compound absorbed by lettuce roots, 6 days after infestation, read-out: effect in at least one of the three categories (mortality, anti-feeding, or growth inhibition)
Excerpt: Test compounds were applied by pipette from 10′000 ppm DMSO stock solutions into 24-well plates and mixed with agar. Lettuce seeds were placed onto the agar and the multi well plate was closed by another plate which contained also agar. After 7 days the compound was absorbed by the roots and the lettuce grew into the lid plate. The lettuce leaves were then cut off into the lid plate. Spodoptera eggs were pipetted through a plastic stencil onto a humid gel blotting paper and the lid plate was closed with it. The samples were assessed for mortality, anti-feedant effect and growth inhibition in comparison to untreated samples 6 days after infestation.
The following compounds gave an effect of at least 80% in at least one of the three categories (mortality, anti-feeding, or growth inhibition) at a test rate of 12.5 ppm: A3, A4, A5, A6, A8, A10, B3, B4, B5 and C2.

[4] = system: Euschistus heros (Neotropical Brown Stink Bug); assay: Euschistus heros on soybean leaves, spray; conditions: 120 h, application rate 200 ppm, N2 nymphs on soybean leaves, 5 days after infestation, read-out: effect in at least one of the two categories (mortality or growth inhibition)
Experimental: Soybean leaves on agar in 24-well microtiter plates were sprayed with aqueous test solutions prepared from 10′000 ppm DMSO stock solutions. After drying the leaves were infested with N2 nymphs. The samples were assessed for mortality and growth inhibition in comparison to untreated samples 5 days after infestation.
as §2

[5] = system: Aedes aegypti (Yellow Fever Mosquito); assay: Aedes aegypti adult contact test on dried deposits; conditions: application rate 200 ppm in ethanol, adult females, after 48 h and/or 24 h
Experimental: Test solutions, at an application rate of 200 ppm in ethanol, were applied to 12 well tissue culture plates. Once the deposits were dry, five, two to five day old adult female Aedes aegypti were added to each well, and sustained with a 10% sucrose solution in a cotton wool plug. Assessment of knockdown was made one hour after introduction, and mortality was assessed at 24 and 48 hours after introduction.
The following compounds gave at least 80% control of Aedes aegypti after 48 h and/or 24 h: […]

[6] = system: Tetranychus urticae (Two-Spotted Spider Mite); assay: Tetranychus urticae feeding/contact activity on bean leaf discs; conditions: foliar, 192 h
Experimental: Feeding/contact activity Bean leaf discs on agar in 24-well microtiter plates were sprayed with aqueous test solutions prepared from 10′000 ppm DMSO stock solutions. After drying the leaf discs were infested with a mite population of mixed ages. The samples were assessed for mortality on mixed population (mobile stages) 8 days after infestation.

[7] = system: Diabrotica Balteata (Corn Root Worm); assay: Diabrotica balteata on maize sprouts, spray; conditions: 96 h, application rate 200 ppm, L2 larvae on maize sprouts, 4 days after infestation, read-out: effect in at least one of the two categories (mortality or growth inhibition)
Experimental: as §1, with “Maize sprouts placed onto an agar layer in 24-well” for “24-well”, “plates” for “plates with artificial diet”, “spraying.” for “pipetting.”, “(6” for “(10”, “10” for “15”, “4” for “5”
as §2

[8] = system: Bemisia tabaci (Cotton White Fly); assay: Bemisia tabaci feeding/contact activity on cotton leaf discs; conditions: foliar, 144 h, application rate 200 ppm, adult white flies on cotton leaf discs, 6 days after incubation
Experimental: Feeding/contact activity Cotton leaf discs were placed on agar in 24-well microtiter plates and sprayed with aqueous test solutions prepared from 10′000 ppm DMSO stock solutions. After drying the leaf discs were infested with adult white flies. The samples were checked for mortality 6 days after incubation.

[9] = system: Myzus persicae (Green Peach Aphid); assay: Myzus persicae feeding/contact activity on sunflower leaf discs; conditions: foliar, 144 h, application rate 200 ppm, aphid population of mixed ages on sunflower leaf discs, 6 days after infestation
Experimental: Feeding/Contact activity Sunflower leaf discs were placed onto agar in a 24-well microtiter plate and sprayed with aqueous test solutions prepared from 10′000 ppm DMSO stock solutions. After drying, the leaf discs were infested with an aphid population of mixed ages. The samples were assessed for mortality 6 days after infestation.

[10] = system: Myzus persicae (Green Peach Aphid); assay: Myzus persicae intrinsic activity (sucrose solution, Parafilm); conditions: 120 h, test rate 12 ppm, 5 days after infestation
Experimental: Intrinsic activity Test compounds prepared from 10′000 ppm DMSO stock solutions were applied by pipette into 24-well microtiter plates and mixed with sucrose solution. The plates were closed with a stretched Parafilm. A plastic stencil with 24 holes was placed onto the plate and infested pea seedlings were placed directly on the Parafilm. The infested plate was closed with a gel blotting paper and another plastic stencil and then turned upside down. The samples were assessed for mortality 5 days after infestation.

CCSc1c(-c2nc3cc(SC(F)(F)F)cnc3n2C)sc2cc(Br)ccc12 [Compound A3, 2-(6-bromo-3-ethylsulfanyl-benzothiophen-2-yl)-3-methyl-6-(trifluoromethylsulfanyl)imidazo[4,5-b]pyridine]
≥ 80%: percent effect (mortality or growth inhibition) at 200 ppm [1] | percent control (mortality, anti-feedant effect or growth inhibition) at 200 ppm [2] | percent effect (mortality, anti-feeding or growth inhibition) at 12.5 ppm [3] | percent effect (mortality or growth inhibition) at 200 ppm [4] | pest or weed control at 200 ppm [5] | mortality at 200 ppm [6] | percent effect (mortality or growth inhibition) at 200 ppm [7]

CCS(=O)(=O)c1c(-c2nc3cc(SC(F)(F)F)cnc3n2C)sc2cc(Br)ccc12 [Compound A4, 2-(6-bromo-3-ethylsulfonyl-benzothiophen-2-yl)-3-methyl-6-(trifluoromethylsulfanyl)imidazo[4,5-b]pyridine]
≥ 80%: percent effect (mortality or growth inhibition) at 200 ppm [1] | percent control (mortality, anti-feedant effect or growth inhibition) at 200 ppm [2] | percent effect (mortality, anti-feeding or growth inhibition) at 12.5 ppm [3] | mortality at 200 ppm [8] | mortality at 200 ppm [9] | percent effect (mortality or growth inhibition) at 200 ppm [4] | pest or weed control at 200 ppm [5] | percent effect (mortality or growth inhibition) at 200 ppm [7]

CCSc1c(-c2nc3cc(C(F)(F)F)cnc3n2C)sc2cc(C(F)(F)F)ccc12 [Compound A5]
≥ 80%: percent effect (mortality or growth inhibition) at 200 ppm [1] | percent control (mortality, anti-feedant effect or growth inhibition) at 200 ppm [2] | percent effect (mortality, anti-feeding or growth inhibition) at 12.5 ppm [3] | percent effect (mortality or growth inhibition) at 200 ppm [4] | pest or weed control at 200 ppm [5] | percent effect (mortality or growth inhibition) at 200 ppm [7]

CCS(=O)(=O)c1c(-c2nc3cc(C(F)(F)F)cnc3n2C)sc2cc(C(F)(F)F)ccc12 [Compound A6]
≥ 80%: percent effect (mortality or growth inhibition) at 200 ppm [1] | percent control (mortality, anti-feedant effect or growth inhibition) at 200 ppm [2] | percent effect (mortality, anti-feeding or growth inhibition) at 12.5 ppm [3] | mortality at 200 ppm [8] | mortality at 200 ppm [9] | percent effect (mortality or growth inhibition) at 200 ppm [4] | pest or weed control at 200 ppm [5] | percent effect (mortality or growth inhibition) at 200 ppm [7]

CCS(=O)(=O)c1c(-c2nc3cc(C(F)(F)F)cnc3n2C)sc2cc(Br)ccc12 [Compound A8, 2-(6-bromo-3-ethylsulfonyl-benzothiophen-2-yl)-3-methyl-6-(trifluoromethyl)imidazo[4,5-b]pyridine]
≥ 80%: percent effect (mortality or growth inhibition) at 200 ppm [1] | percent control (mortality, anti-feedant effect or growth inhibition) at 200 ppm [2] | percent effect (mortality, anti-feeding or growth inhibition) at 12.5 ppm [3] | mortality at 200 ppm [8] | mortality at 200 ppm [9] | percent effect (mortality or growth inhibition) at 200 ppm [4] | pest or weed control at 200 ppm [5] | percent effect (mortality or growth inhibition) at 200 ppm [7]

CCS(=O)(=O)c1c(-c2nc3cc(C(F)(F)F)cnc3n2C)sc2cc(SC(F)(F)F)ccc12 [Compound A10, 2-[3-ethylsulfonyl-6-(trifluoromethylsulfanyl)benzothiophen-2-yl]-3-methyl-6-(trifluoromethyl)imidazo[4,5-b]pyridine]
≥ 80%: percent effect (mortality or growth inhibition) at 200 ppm [1] | percent control (mortality, anti-feedant effect or growth inhibition) at 200 ppm [2] | percent effect (mortality, anti-feeding or growth inhibition) at 12.5 ppm [3] | mortality at 200 ppm [9] | percent effect (mortality or growth inhibition) at 200 ppm [4] | pest or weed control at 200 ppm [5] | percent effect (mortality or growth inhibition) at 200 ppm [7]

CCSc1c(-c2nc3cnc(C(F)(F)F)cc3n2C)sc2ccccc12 [Compound B1, 2-(3-ethylsulfanylbenzothiophen-2-yl)-1-methyl-6-(trifluoromethyl)imidazo[4,5-c]pyridine]
≥ 80%: percent effect (mortality or growth inhibition) at 200 ppm [1] | mortality at 200 ppm [9] | percent effect (mortality or growth inhibition) at 200 ppm [7] | mortality at 12 ppm [10]

CCSc1c(-c2nc3cc(C(F)(F)F)ncc3n2C)sc2cc(C(F)(F)F)ccc12 [Compound B3, 2-[3-ethylsulfanyl-6-(trifluoromethyl)benzothiophen-2-yl]-3-methyl-6-(trifluoromethyl)imidazo[4,5-c]pyridine]
≥ 80%: percent effect (mortality or growth inhibition) at 200 ppm [1] | percent control (mortality, anti-feedant effect or growth inhibition) at 200 ppm [2] | percent effect (mortality, anti-feeding or growth inhibition) at 12.5 ppm [3] | percent effect (mortality or growth inhibition) at 200 ppm [4] | pest or weed control at 200 ppm [5] | percent effect (mortality or growth inhibition) at 200 ppm [7] | mortality at 12 ppm [10]

CCS(=O)(=O)c1c(-c2nc3cc(C(F)(F)F)ncc3n2C)sc2cc(C(F)(F)F)ccc12 [Compound B4, 2-[3-ethylsulfonyl-6-(trifluoromethyl)benzothiophen-2-yl]-3-methyl-6-(trifluoromethyl) imidazo[4,5-c]pyridine]
≥ 80%: percent effect (mortality or growth inhibition) at 200 ppm [1] | percent control (mortality, anti-feedant effect or growth inhibition) at 200 ppm [2] | percent effect (mortality, anti-feeding or growth inhibition) at 12.5 ppm [3] | mortality at 200 ppm [8] | mortality at 200 ppm [9] | percent effect (mortality or growth inhibition) at 200 ppm [4] | pest or weed control at 200 ppm [5] | percent effect (mortality or growth inhibition) at 200 ppm [7]

CCS(=O)(=O)c1c(-c2nc3cc(SC(F)(F)F)ncc3n2C)sc2cc(Br)ccc12 [Compound B5, 2-(6-bromo-3-ethylsulfonyl-benzothiophen-2-yl)-3-methyl-6-(trifluoromethylsulfanyl)imidazo[4,5-c]pyridine]
≥ 80%: percent effect (mortality or growth inhibition) at 200 ppm [1] | percent control (mortality, anti-feedant effect or growth inhibition) at 200 ppm [2] | percent effect (mortality, anti-feeding or growth inhibition) at 12.5 ppm [3] | mortality at 200 ppm [8] | mortality at 200 ppm [9] | percent effect (mortality or growth inhibition) at 200 ppm [4] | pest or weed control at 200 ppm [5] | percent effect (mortality or growth inhibition) at 200 ppm [7]

CCS(=O)(=O)c1c(-c2nc3cc(C(F)(F)F)ccc3n2C)sc2cc(C(F)(F)F)ccc12 [Compound C2]
≥ 80%: percent effect (mortality or growth inhibition) at 200 ppm [1] | percent control (mortality, anti-feedant effect or growth inhibition) at 200 ppm [2] | percent effect (mortality, anti-feeding or growth inhibition) at 12.5 ppm [3] | mortality at 200 ppm [8] | pest or weed control at 200 ppm [5] | percent effect (mortality or growth inhibition) at 200 ppm [7]
